Reference: patent publication US12162845B1, “3-(4-bromophenyl)-5-((2-isopropyl-5-methylphenoxy)methyl)-1,2,4-oxadiazole as an anti-cancer and antimicrobial compound” (KING FAISAL UNIVERSITY, priority 2023, dated 2024)

How the values were obtained:
Assay type in all cases: cell-based
Bacillus Cereus = experiment: Agar plate disc-diffusion, antibacterial inhibition zone
Description: (§1) The agar plate disc-diffusion method was applied. […] The discs were then placed onto the surface of agar plates (nutrient agar for bacteria and Sabouraud's dextrose agar for fungi) seeded with the test organism. Each plate contained 15 mL of the agar medium, previously seeded with 0.2 mL of the broth culture of each organism pregrown for 18 hours. The plates were incubated at 37° C. for 48 h, and 72 h for fungi. The inhibition zones were measured in mm. Discs impregnated with DMSO were used as a control, and its inhibition zone was subtracted from the tested compound actual inhibition zone.

Escherichia coli = experiment: as above
Description: as §1

Pseudomonas aeruginosa = experiment: as above
Description: as §1

Staphylococcus aureus = experiment: as above
Description: as §1

Aspergillus flavus = experiment: Agar plate disc-diffusion, antifungal inhibition zone
Description: as §1

[1] = tested on: Chrysosporium keratinophilum; experiment: as above
Description: as §1

different microbes = experiment: Antimicrobial activity, agar plate disc-diffusion (overall statement); settings: against different microbes, result in words
Description: The agar plate disc-diffusion method was applied. Sterilized filter papers (6 mm in diameter) were wetted with 10 μL of a solution of 3-(4-bromophenyl)-5-((2-isopropyl-5-methylphenoxy)methyl)-1,2,4-oxadiazole (3) to be tested, containing 10 mg/mL in DMSO, and the discs were allowed to air dry. The discs were then placed onto the surface of agar plates (nutrient agar for bacteria and Sabouraud's dextrose agar for fungi) seeded with the test organism. Each plate contained 15 mL of the agar medium, previously seeded with 0.2 mL of the broth culture of each organism pregrown for 18 hours. The plates were incubated at 37° C. for 48 h, and 72 h for fungi. The inhibition zones were measured in mm. Discs impregnated with DMSO were used as a control, and its inhibition zone was subtracted from the tested compound actual inhibition zone.

[2] = tested on: human osteosarcoma cells (MG-63); experiment: Cytotoxicity by SRB assay; settings: MG-63 cells, 0.01 μM to 100 μM for 72 h, result in words
Text: (§2) The anticancer activity of the described synthesized compounds against highly aggressive androgen-independent metastatic human prostate cancer cells (PC3) and osteosarcoma (MG-63) cells. The human prostate cancer cells (PC3) and human osteosarcoma cells (MG-63) were obtained from Nawah Scientific Inc. (Mokatam, Cairo, Egypt) and cultured in DMEM (Dulbecco's modified eagle's medium), Gibco, USA, supplemented with fetal bovine serum (FBS) at a concentration of 10% and 100 U/mL of penicillin and streptomycin (PS). The Cells were incubated at 37° C. in a humidified environment that contained 5% CO2.
(§3) Cells were seeded in 96-well plates as aliquots of 100 μL cell suspension and incubated in a complete media for 24 h. afterward, cells were treated with 3-(4-bromophenyl)-5-((2-isopropyl-5-methylphenoxy)methyl)-1,2,4-oxadiazole at diverse concentrations ranging from 0.01 μM to 100 μM for 72 h. Then, cells were fixed at 4° C. for one hour with 150 μL of 10% trichloroacetic acid (TCA). […] Then, 150 μL of Tris pH 10.5 (10 mM) was added, and the absorbance was measured at 540 nm using a BMG LABTECH®-FLUOstar Omega microplate reader (Ortenberg, Germany). Half maximal inhibitory concentrations (IC50) values were calculated for each experiment using GraphPad Prism 6 software. […]
(§4) The inhibition was calculated using the following equation: Inhibition %=100−Average Viability

[3] = tested on: human prostate cancer cells (PC3); experiment: Cytotoxicity by SRB assay; settings: 0.01 μM to 100 μM for 72 h, result in words
Text: as §2, §3, §4

[4] = A = concentration of comp. = 10,000 μL
[5] = B = concentration of comp. = 30,000 μL
[6] = C = concentration of comp. = 50,000 μL

In the case of `Cc1ccc(C(C)C)c(OCc2nc(-c3ccc(Br)cc3)no2)c1` [compound 3, 3-(4-bromophenyl)-5-((2-isopropyl-5-methylphenoxy)methyl)-1,2,4-oxadiazole], the inhibition zone (Bacillus Cereus; [4]) is reported as 25 mm, the inhibition zone (Bacillus Cereus; [5]) is reported as 27 mm and the inhibition zone (Bacillus Cereus; [6]) is reported as 42 mm. It also gave an inhibition zone (Escherichia coli; [4]) of 28 mm, an inhibition zone (Escherichia coli; [5]) of 37 mm and an inhibition zone (Escherichia coli; [6]) of 55 mm. It also gave an inhibition zone (Pseudomonas aeruginosa; [4]) of 24 mm, an inhibition zone (Pseudomonas aeruginosa; [5]) of 27 mm and an inhibition zone (Pseudomonas aeruginosa; [6]) of 39 mm. It also gave an inhibition zone (Staphylococcus aureus; [4]) of 13 mm, an inhibition zone (Staphylococcus aureus; [5]) of 17 mm and an inhibition zone (Staphylococcus aureus; [6]) of 21 mm. For the same compound, the inhibition zone (Aspergillus flavus; [4]) was 17 mm, the inhibition zone (Aspergillus flavus; [5]) was 20 mm and the inhibition zone (Aspergillus flavus; [6]) was 29 mm. It also gave an inhibition zone [1, 4] of 26 mm, an inhibition zone [1, 5] of 28 mm and an inhibition zone [1, 6] of 48 mm. For the same compound, the antimicrobial activity (different microbes) was “excellent antimicrobial activities”.
For `Cc1ccc(C(C)C)c(OCc2nc(-c3ccc(Br)cc3)no2)c1` [3-(4-bromophenyl)-5-((2-isopropyl-5-methylphenoxy)methyl)-1,2,4-oxadiazole], the antiproliferative activity [2] was “excellent antiproliferative activities” and the antiproliferative activity [3] was “excellent antiproliferative activities”.
Compound `O=C(O)c1cn(C2CC2)c2cc(N3CCNCC3)c(F)cc2c1=O` [Cip., ciprofloxacin, reference compound] has an inhibition zone (Bacillus Cereus; [4]) of 29 mm, an inhibition zone (Bacillus Cereus; [5]) of 30 mm and an inhibition zone (Bacillus Cereus; [6]) of 42 mm. For the same compound, the inhibition zone (Escherichia coli; [4]) was 30 mm, the inhibition zone (Escherichia coli; [5]) was 39 mm and the inhibition zone (Escherichia coli; [6]) was 60 mm. The inhibition zone (Pseudomonas aeruginosa; [4]) was 29 mm, the inhibition zone (Pseudomonas aeruginosa; [5]) was 30 mm and the inhibition zone (Pseudomonas aeruginosa; [6]) was 53 mm. The inhibition zone (Staphylococcus aureus; [4]) was 43 mm, the inhibition zone (Staphylococcus aureus; [5]) was 44 mm and the inhibition zone (Staphylococcus aureus; [6]) was 53 mm. For the same compound, the inhibition zone (Aspergillus flavus; [4]) was 29 mm, the inhibition zone (Aspergillus flavus; [5]) was 30 mm and the inhibition zone (Aspergillus flavus; [6]) was 42 mm. The inhibition zone [1, 4] was 29 mm, the inhibition zone [1, 5] was 30 mm and the inhibition zone [1, 6] was 53 mm.
